Source: patent publication US10799501B2, “Combination of an inhibitor of PARP with an inhibitor of GSK-3 or DOT1L” (King's College London, priority 2015, dated 2020)

Experiments:
THP1 (MLL-AF9) = test: Humanized xenograft: NSG mice transplanted with THP1 cells, Olaparib treatment; type: in vivo, mouse
Protocol: We established humanized models of AML1-ETO and PML-RARα leukemia in sub-lethally irradiated NOD/SCID/IL2Rg−/−(NSG, 1 dose 200 RADs) by transplanting 2×10^6 Kasumi (intra-femoral, IF) and 1×10^5 NB4-LR2 or 1×10^5 THP1 (intravenous, IV) cells. The day after the transplantation, mice were split into two groups and given intra-peritoneal injections of vehicle (10% HBC) or Olaparib (25 mg/kg in 10% HBC) daily for 2-4 weeks. The maximum tolerable dose was calculated by in vivo dose-response experiments. Mice were monitored daily until they developed symptoms of leukemia, when they were culled and bone marrow, spleen and liver harvested and analyzed by FACS. The engraftment of human donor cells was defined as human CD45/CD33 double positive by FACS.

[1] = system: PML-RARα transformed cells; test: In vitro drug treatment of primary murine hematopoietic cells transformed by PML-RARα (RTTA); type: cell-based, mouse
Protocol: Transduction using concentrated viral supernatant expressing the oncogene of interest was carried out by centrifugation (spinoculation) at 800 g at 32° C. for 2 hours in the presence of 5 μg ml^-1 polybrene (Sigma-Aldrich). Cells were subsequently plated in 1% methylcellulose medium ([…]; Stem Cell Technologies) containing 20 ngml^-1 SCF, 10 ngml^-1 IL-3, 10 ngml^-1 IL-6 and 10 ngml^-1 granulocyte macrophage colony-stimulating factor (GM-CSF) and appropriate selection antibiotic. Colonies were counted after 7 days of culture and replated every 6-7 days at 5×103-1.5×10^4 cell density. Re-plating was performed weekly to generate primary cell lines for further analysis. After the third or fourth round of plating, cells were cultured in R20/20 medium (RPMI 1640, 20% FCS, 20% WEHI-conditioned medium, 2 mM L-glutamine, 100 U/ml penicillin, and 100 μg/ml streptomycin) supplemented with 20 ngml^-1 stem cell factor (SCF), 10 ngml^-1 interleukin (IL)-3, and 10 ngml^-1 IL-6 to establish cell lines. All recombinant murine cytokines were from PeprotechEC. […] Colonies were scored 6-7 days after plating. For other in vitro studies, mouse leukemic cells and primary AML cell lines were subjected to continuously Olaparib (1 μM) or LiCl (8 mM) treatment in liquid culture for whole duration as indicated in the figures or figure legends. For human leukemic cell lines, experiments were performed as described above with 5 μM Olaparib. For each assay 1×10^5 cells were collected, washed in PBS and re-suspended in Annexin V binding solution (25 mM Hepes, 140 mM KCl, 2.5 mM CaCl2 pH 7.2). After centrifugation at 500 g for five minutes the cells were incubated with the Annexin V Binding solution containing 0.25 ug/ml mouse anti Annexin V-FITC antibody (Biolegend 640906) and 1 ug/ml propidium iodide in the dark for 30 minutes at 4° C. Samples were then washed in PBS analysed at the FACS LSRII (BD Biosciences Pharmingen) with FACS Diva. Cells were cytospun onto a glass slide at 400 g for 5 minutes and then fixed for 10 minutes with 2% formaldehyde/0.2% glutaraldehyde (Sigma Aldrich). Cells were then washed with PBS, and then incubated at 37° C. for at least 2 hours with a staining solution (30 mM Citric Acid/Phosphate buffer, 5 mM K4Fe(CN)6, 5 mM K3Fe(CN)6, 150 mM NaCl, 2 mM MgCl2, 1 mg/ml X-Gal) (All reagents from Sigma-Aldrich)62. Cells were counted in at least 5 fields for each slide, for a total of over 100 cells. The percentage of senescent cells was calculated by the percentage of the number of blue cell in the field. Cells were cytospun onto a glass slide at 400 g for 5 minutes and then fixed for 30 minutes in 4% PFA and permeabilized and blocked in 0.8% Tx-100, 10% FBS/1% BSA (Sigma-Aldrich) in PBS for 15 min at room temperature. Mouse anti mouse γH2AX ([…]) (Upstate clone JBW301#05-636) and rabbit anti mouse RAD51 (Santa Cruz Biotecnology […]# sc-8349) were diluted in TBS containing 10% FBS/1% BSA and incubated overnight at 4C. […] Slides were then washed five times at 10 min each with PBS. Slides were briefly washed in water and air-dried prior to mounting with Mowiol-DABCO and a coverslip. Cells were counted in at least 5 fields for each slide, for a total of over 100 cells per condition. 1×10^5 cells were cytospun for 5 min at 300 g onto glass slides. Slides were then stained with May-Grunwald solution (Sigma-Aldrich) for 3 min at room temperature. After washing in water, they were incubated for 20 min in Giemsa solution (Sigma-Aldrich) (1:20 in water). Slides were washed again in water before being mounted with Mowiol. Cells were counted in at least 5 fields for each slide, for a total of over 100 cells per condition. NBT reduction assay were performed to determine myeloid differentiation. 0.1% of NBT (final concentration) was added to the liquid culture or semi-solid methocult and incubated at 37° C. CO2 incubator for 3 hrs and 12 hrs, respectively. […]

[2] = NSG mice succumbed with THP1 driven disease, Olaparib 25 mg/kg i.p. daily

## O=C(c1cc(Cc2n[nH]c(=O)c3ccccc23)ccc1F)N1CCN(C(=O)C2CC2)CC1 [Olaparib, 4-[(3-[(4-cyclopropylcarbonyl)piperazin-4-yl]carbonyl)-4-fluorophenyl]methyl(2H)-phthalazin-1-one]
THP1 (MLL-AF9); [2]
  BM Engraftment (%): 30.7 ± 33.27%
  Disease Latency (days; median): 81 days
  Hematopoietic Liver Engraftment (%): 27.81 ± 31.79%
  Hematopoietic Spleen Engraftment (%): 8.53 ± 6.946%
  Liver: 1.31 ± 0.153 g
  Spleen: 0.0822 ± 0.0301 g
THP1 (MLL-AF9); THP1 cells carrying MLL-AF9
  survival of xenograft model transplanted with human THP1 cells: no effect on the survival
[1]; 1 uM Olaparib, methylcellulose 7 days, p<0.001
  suppression of colony forming ability: about 90%
[1]; PARPi 24 hrs and 48 hrs
  apoptosis (Annexin V/PI): induced apoptosis
  senescence (β-galactosidase staining): underwent significant senescence
[1]; PARPi treatment for 6 hours
  Rad51 recruitment to DNA damage sites (RAD51 foci): no significant Rad51 recruitment
[1]; time course PARPi treatment
  percentage of differentiation (morphology and NBT reduction): significantly increased the percentage of differentiation
[1]; upon PARPi treatment
  cells with γH2AX and Rad51 foci ratio greater than 2: around 80%
